Source: publication PMC4793304 (Bioscience Reports, 2016)
Where two headings read alike, the source gives them in different places.

Legend:
[1] = tested on: Pgp; details: read-out: Km for ATPase activation (implied); CR1R12 cells; maximal activation not reached at 1000 μM digoxin; cited from earlier work
[2] = molecular target: T1, mouse Pgp transporter (Mus musculus, UniProt P21447); details: proton near the 1,4 β-linkage; 250 μM digoxin, 1 μM Pgp
Procedure: The STDD NMR procedure for membrane proteins was performed as described in [68]. […] The STDD NMR experiments were performed with a double pulsed field gradient spin echo pulse sequence to suppress background water, a 2s train of 50 ms shaped saturation pulses to selectively excite the protein and a total relaxation delay of 5 s [63]. […] Control experiments were performed under identical conditions with liposomes and the drugs. To produce the STDD NMR spectrum, ^1H STD NMR spectrum of liposomes with drugs was subtracted from the ^1H STD NMR spectrum of Pgp reconstituted in liposomes with drugs (ΔI). […] The STDD amplification factor was calculated using the following equation based on the STD amplification factor (eqn 5) [63]:
5 STDDamplificationfactor=L/PΔI/I0
where [P] is the protein concentration and I0 is the amplitude of the ^1H NMR peaks in the absence of saturating pulses.

[3] = molecular target: T1, mouse Pgp transporter
[4] = molecular target: T1, mouse Pgp transporter; test: biochemical
Source text: (§1) Drug-induced quenching of protein fluorescence with Pgp reconstituted in liposomes was investigated on an Olis DM 45 spectrofluorimeter (Olis Corp). […] Drug-induced fluorescence quenching was corrected (Fcorrected) for background fluorescence, dilution and inner filter effects with eqn (3) [57]:
3 Fcorrected=F−B10^ɛexbex+ɛembemQ/2
(§2) where F is the measured protein fluorescence, B is the background and [Q] is the quenching ligand concentration. The molar absorption coefficients (ε) for excitation and emission are εex and εem respectively. […] The pathlength (b) along the excitation and emission axes are bex and bem respectively. Drug-induced quenching of protein fluorescence from complexation of the ligand to the protein is known as static quenching, and can be used to estimate the drug's affinity. Drug-induced fluorescence quenching from random collisions with the protein is known as dynamic quenching [57]. Regardless of the nature of the quenching, the fluorescence quenching curves were fit to eqn (4) [57]:
4 Fcorrected=Fcorrected,0/1+KQ
(§3) where Fcorrected,0 is the protein fluorescence in the absence of a quenching ligand and K is the association constant (KA) or the Stern–Volmer quenching constant (KSV) in the case of a static and dynamic quenching processes respectively.

[5] = tested on: human Pgp; details: read-out: Km for ATPase activation; Caco-2 membrane vesicles containing human Pgp; cited from earlier work
[6] = tested on: human Pgp from Caco-2 cells; details: read-out: Km for digoxin transport; cited from earlier work
[7] = molecular target: T1, mouse Pgp transporter; details: 250 μM digoxin
Procedure: Control acrylamide titrations were performed in the presence of N-acetyl-L-tryptophanamide (NATA) to estimate the degree of non-specific quenching [55]. Fluorescence intensities were corrected for with eqn (3) [57]. To produce the Stern–Volmer plots, the Fcorrected,0/Fcorrected was plotted as a function of the acrylamide concentration. The degree of dynamic tryptophan quenching was estimated from the slopes of the Stern–Volmer curves, which is related to KSV by Fcorrected,0/Fcorrected = 1 + KSV[Q]

[8] = molecular target: T1, mouse Pgp transporter; test: biochemical; remark: listed apart in the source
Source text: (§4) Because of the complexity of the model shown in Figure 6A, the kinetics curves in Figures 6B and 6C were fit using the COPASI software package.

[9] = molecular target: T1, mouse Pgp transporter; remark: listed apart in the source
Source text: as §4

[10] = tested on: human Pgp; details: read-out: Km for ATPase activation; human Pgp-enriched insect cell membranes; cited from earlier work
[11] = molecular target: T1, mouse Pgp transporter; remark: listed apart in the source
Source text: as §1
3 Fcorrected=F−B10^ɛexbex+ɛembemQ/2
as §2
4 Fcorrected=Fcorrected,0/1+KQ
as §3

T1 sequence (P21447 whole entry): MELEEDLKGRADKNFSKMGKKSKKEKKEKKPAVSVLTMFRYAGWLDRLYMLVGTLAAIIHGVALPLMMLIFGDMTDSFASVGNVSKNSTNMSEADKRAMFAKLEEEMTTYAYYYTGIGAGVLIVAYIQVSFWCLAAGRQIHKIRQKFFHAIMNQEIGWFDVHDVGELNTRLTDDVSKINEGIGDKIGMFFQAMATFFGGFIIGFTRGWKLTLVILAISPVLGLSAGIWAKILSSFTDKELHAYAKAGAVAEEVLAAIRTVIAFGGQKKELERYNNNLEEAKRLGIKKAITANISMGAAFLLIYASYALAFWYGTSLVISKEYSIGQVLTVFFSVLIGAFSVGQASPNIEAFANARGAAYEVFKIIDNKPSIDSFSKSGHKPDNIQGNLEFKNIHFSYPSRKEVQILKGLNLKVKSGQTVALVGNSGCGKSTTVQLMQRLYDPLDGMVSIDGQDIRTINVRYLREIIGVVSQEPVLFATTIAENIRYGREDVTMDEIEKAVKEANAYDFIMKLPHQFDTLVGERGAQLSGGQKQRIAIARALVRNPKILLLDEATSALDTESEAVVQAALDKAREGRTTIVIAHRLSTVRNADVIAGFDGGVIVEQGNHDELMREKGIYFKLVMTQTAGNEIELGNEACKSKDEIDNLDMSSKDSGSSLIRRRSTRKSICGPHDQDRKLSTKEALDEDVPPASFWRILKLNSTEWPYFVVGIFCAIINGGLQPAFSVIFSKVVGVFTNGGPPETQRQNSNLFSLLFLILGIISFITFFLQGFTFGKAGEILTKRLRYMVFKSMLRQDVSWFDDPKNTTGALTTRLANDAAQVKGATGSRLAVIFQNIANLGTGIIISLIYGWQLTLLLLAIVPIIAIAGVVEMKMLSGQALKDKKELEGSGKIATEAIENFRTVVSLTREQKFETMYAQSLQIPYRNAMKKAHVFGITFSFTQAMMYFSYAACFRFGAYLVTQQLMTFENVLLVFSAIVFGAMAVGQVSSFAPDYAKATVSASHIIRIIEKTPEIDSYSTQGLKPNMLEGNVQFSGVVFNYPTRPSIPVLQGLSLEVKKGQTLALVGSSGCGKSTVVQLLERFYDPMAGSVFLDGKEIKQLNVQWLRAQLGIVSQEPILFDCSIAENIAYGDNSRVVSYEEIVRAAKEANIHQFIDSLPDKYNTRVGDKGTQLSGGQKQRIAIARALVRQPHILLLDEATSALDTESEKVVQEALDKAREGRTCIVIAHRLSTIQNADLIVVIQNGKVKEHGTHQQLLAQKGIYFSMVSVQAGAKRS

**Q.** What does the source list for C[C@H]1O[C@@H](O[C@H]2[C@@H](O)C[C@H](O[C@H]3[C@@H](O)C[C@H](O[C@H]4CC[C@@]5(C)[C@H](CC[C@@H]6[C@@H]5C[C@@H](O)[C@]5(C)[C@@H](C7=CC(=O)OC7)CC[C@]65O)C4)O[C@@H]3C)O[C@@H]2C)C[C@H](O)[C@@H]1O [digoxin]?
**A.** Km [1]: > 500 µM; highest STDD amplification factor [2]: ~8; maximum Pgp-coupled ATPase activity reached ([3]; 50 nM Pgp in liposomes, verapamil maximum at 8 μM): ~1300 nmol/min/mg; fold activation of ATPase at maximum ([3]; relative to basal activity, verapamil at 8 μM): ~2 fold; VMAX of drug-induced ATP hydrolysis ([3]; verapamil fit to substrate inhibition eqn 2, digoxin fit to Michaelis-Menten eqn 1): 1344 ± 149.8 nmol/min/mg; Kd [4]: 100 ± 18 µM; Km [5]: 1.2 µM; Km [6]: 385 µM; KSV (acrylamide Stern-Volmer slope of Pgp) [7]: 2.29 ± 0.12 M⁻¹; Kd ([8]; KD3 (digoxin, DDI model), in the absence of verapamil): 239 µM; Kd ([8]; KD4, affinity of digoxin to Pgp in the presence of verapamil, estimated indirectly by fitting with COPASI): 292 ± 89 µM; Kd ([8]; average KD3, average from fitting all curves): 206 ± 53 µM; average VMAX3 ([9]; average from fitting all curves): 1981 ± 207 nmol/min/mg; VMAX4,5, ATPase activation from simultaneous binding of digoxin and verapamil ([9]; both drugs bound, estimated by fitting with COPASI): 121 ± 139 nmol/min/mg; VMAX3 (digoxin, DDI model) ([9]; in the absence of verapamil): 1983 nmol/min/mg; Km [10]: 83.7 µM; K from fluorescence quenching ([11]; 37°C, no verapamil): 0.0030 ± 0.0008 µM⁻¹; quenching of Pgp fluorescence at saturating digoxin ([11]; excitation 280 nm, emission 333 nm, 25°C): ~10%
